In patent US11541055B2, “Inhibitors of human immunodeficiency virus replication” (ViiV Healthcare UK (No. 5) LIMITED, priority 2018, dated 2023):

Assays:
[1] = tested on: recombinant NL4-3 virus (Renilla luciferase) in MT-2 cells; test: HIV cell culture assay (antiviral activity, luciferase readout); assay type: cell-based; conditions: Renilla, NL43
Summary of the method: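 MT-2 cells were infected with recombinant NL4-3 virus carrying Renilla luciferase in place of part of nef. Cells were cultured 4–5 days with serially diluted compound, and luciferase was measured with a live-cell substrate. EC50 was calculated from the median effect equation.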

[2] = Compound cytotoxicity, XTT-based colorimetric assay; assay type: cell-based; conditions: human; uninfected MT2 cells, day 4, XTT
Summary of the method: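 Run under the antiviral-assay protocol but without virus. Viability was read on day 4 and CC50 values were derived from the readout.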

| Compound | EC50 [1] | CC50 at 4 days [2] |
| --- | --- | --- |
| CS(=O)(=O)c1cccnc1-c1ccc2c(=O)n(-c3ccc(Cl)c4c(NS(=O)(=O)C5CC5)nn(CC(F)F)c34)c([C@H](Cc3cc(F)cc(F)c3)NC(=O)Cn3nc(C(F)F)c4c3C(F)(F)[C@@H]3C[C@H]43)nc2c1 (atropisomer, axis not shown; (P)) [Example 95, N—((S)-1-((3P)-3-(4-chloro-3-(cyclopropanesulfonamido)-1-(2,2-difluoroethyl)-1H-indazol-7-yl)-7-(3-(methylsulfonyl)pyridin-2-yl)-4-oxo-3,4-dihydroquinazolin-2-yl)-2-(3,5-difluorophenyl)ethyl)-2-((3bS,4aR)-3-(difluoromethyl)-5,5-difluoro-3b,4,4a,5-tetrahydro-1H-cyclopropa[3,4]cyclopenta[1,2-c]pyrazol-1-yl)acetamide] | 0.053 nM | > 500 nM |
| Cc1cc(C(C)C)nc(-c2ccc3c(=O)n(-c4ccc(Cl)c5c(NS(C)(=O)=O)nn(C)c45)c([C@H](Cc4cc(F)cc(F)c4)NC(=O)Cn4nc(C(F)F)c5c4C(F)(F)[C@@H]4C[C@H]54)nc3c2)n1 (atropisomer, axis not shown; (P)) [Example 37, N—((S)-1-((3P)-3-(4-chloro-1-methyl-3-(methylsulfonamido)-1H-indazol-7-yl)-7-(4-isopropyl-6-methylpyrimidin-2-yl)-4-oxo-3,4-dihydroquinazolin-2-yl)-2-(3,5-difluorophenyl)ethyl)-2-((3bS,4aR)-3-(difluoromethyl)-5,5-difluoro-3b,4,4a,5-tetrahydro-1H-cyclopropa[3,4]cyclopenta[1,2-c]pyrazol-1-yl)acetamide] | 0.16 nM | > 500 nM |
| Cn1nc(NS(C)(=O)=O)c2c(Cl)ccc(-n3c([C@H](Cc4cc(F)cc(F)c4)NC(=O)Cn4nc(C(F)F)c5c4C(F)(F)[C@@H]4C[C@H]54)nc4cc(-c5ncccc5F)ccc4c3=O)c21 (atropisomer, axis not shown; (P)) [Example 21, N—((S)-1-((3P)-3-(4-chloro-1-methyl-3-(methylsulfonamido)-1H-indazol-7-yl)-7-(3-fluoropyridin-2-yl)-4-oxo-3,4-dihydroquinazolin-2-yl)-2-(3,5-difluorophenyl)ethyl)-2-((3bS,4aR)-3-(difluoromethyl)-5,5-difluoro-3b,4,4a,5-tetrahydro-1H-cyclopropa[3,4]cyclopenta[1,2-c]pyrazol-1-yl)acetamide] | 0.091 nM | > 500 nM |
| Cn1nc(NS(C)(=O)=O)c2c(Cl)ccc(-n3c([C@H](Cc4cc(F)cc(F)c4)NC(=O)Cn4nc(C(F)F)c5c4C(F)(F)[C@@H]4C[C@H]54)nc4cc(-c5cccc(C(F)(F)F)n5)ccc4c3=O)c21 (atropisomer, axis not shown; (P)) [Example 59, N—((S)-1-((3P)-3-(4-chloro-1-methyl-3-(methylsulfonamido)-1H-indazol-7-yl)-4-oxo-7-(6-(trifluoromethyl)pyridin-2-yl)-3,4-dihydroquinazolin-2-yl)-2-(3,5-difluorophenyl)ethyl)-2-((3bS,4aR)-3-(difluoromethyl)-5,5-difluoro-3b,4,4a,5-tetrahydro-1H-cyclopropa[3,4]cyclopenta[1,2-c]pyrazol-1-yl)acetamide] | 0.12 nM | > 500 nM |
| Cn1nc(NS(C)(=O)=O)c2c(Cl)ccc(-n3c([C@H](Cc4cc(F)cc(F)c4)NC(=O)Cn4nc(C(F)F)c5c4C(F)(F)[C@@H]4C[C@H]54)nc4cc(-c5ccnc(C6CC6)n5)ccc4c3=O)c21 (atropisomer, axis not shown; (P)) [Example 78, N—((S)-1-((3P)-3-(4-chloro-1-methyl-3-(methylsulfonamido)-1H-indazol-7-yl)-7-(2-cyclopropylpyrimidin-4-yl)-4-oxo-3,4-dihydroquinazolin-2-yl)-2-(3,5-difluorophenyl)ethyl)-2-((3bS,4aR)-3-(difluoromethyl)-5,5-difluoro-3b,4,4a,5-tetrahydro-1H-cyclopropa[3,4]cyclopenta[1,2-c]pyrazol-1-yl)acetamide] | 0.16 nM | > 500 nM |
| CS(=O)(=O)Nc1nn(CC(F)F)c2c(-n3c([C@H](Cc4cc(F)cc(F)c4)NC(=O)Cn4nc(C(F)F)c5c4C(F)(F)[C@@H]4C[C@H]54)nc4cc(-c5cccnn5)ccc4c3=O)ccc(Cl)c12 (atropisomer, axis not shown) [Example 135, N-[(1S)-1-{3-[4-chloro-1-(2,2-difluoroethyl)-3-methanesulfonamido-1H-indazol-7-yl]-4-oxo-7-(pyridazin-3-yl)-3,4-dihydroquinazolin-2-yl}-2-(3,5-difluorophenyl)ethyl]-2-[(2S,4R)-9-(difluoromethyl)-5,5-difluoro-7,8-diazatricyclo[4.3.0.0^2,^4]nona-1(6),8-dien-7-yl]acetamide] | 0.054 nM | > 500 nM |
| Cc1ncc(-c2ccc3c(=O)n(-c4ccc(Cl)c5c(NS(C)(=O)=O)nn(CC(F)F)c45)c([C@H](Cc4cc(F)cc(F)c4)NC(=O)Cn4nc(C(F)F)c5c4C(F)(F)[C@@H]4C[C@H]54)nc3c2)s1 (atropisomer, axis not shown) [Example 123, N-[(1S)-1-{3-[4-chloro-1-(2,2-difluoroethyl)-3-methanesulfonamido-1H-indazol-7-yl]-7-(2-methyl-1,3-thiazol-5-yl)-4-oxo-3,4-dihydroquinazolin-2-yl}-2-(3,5-difluorophenyl)ethyl]-2-[(2S,4R)-9-(difluoromethyl)-5,5-difluoro-7,8-diazatricyclo[4.3.0.0^2,^4]nona-1(6),8-dien-7-yl]acetamide] | 0.087 nM | > 500 nM |
| COc1nc2ccccc2nc1-c1ccc2c(=O)n(-c3ccc(Cl)c4c(NS(C)(=O)=O)nn(C)c34)c([C@H](Cc3cc(F)cc(F)c3)NC(=O)Cn3nc(C(F)F)c4c3C(F)(F)[C@@H]3C[C@H]43)nc2c1 (atropisomer, axis not shown; (P)) [Example 19, N—((S)-1-((3P)-3-(4-chloro-1-methyl-3-(methylsulfonamido)-1H-indazol-7-yl)-7-(3-methoxyquinoxalin-2-yl)-4-oxo-3,4-dihydroquinazolin-2-yl)-2-(3,5-difluorophenyl)ethyl)-2-((3bS,4aR)-3-(difluoromethyl)-5,5-difluoro-3b,4,4a,5-tetrahydro-1H-cyclopropa[3,4]cyclopenta[1,2-c]pyrazol-1-yl)acetamide] | 5.5 nM | > 500 nM |
| COc1ncc(-c2ccc3c(=O)n(-c4ccc(Cl)c5c(NS(C)(=O)=O)nn(CC(F)(F)F)c45)c([C@H](Cc4cc(F)cc(F)c4)NC(=O)Cn4nc(C(F)F)c5c4C(F)(F)[C@@H]4C[C@H]54)nc3c2)cn1 (atropisomer, axis not shown) [Example 116, N-[(1S)-1-{3-[4-chloro-3-methanesulfonamido-1-(2,2,2-trifluoroethyl)-1H-indazol-7-yl]-7-(2-methoxypyrimidin-5-yl)-4-oxo-3,4-dihydroquinazolin-2-yl}-2-(3,5-difluorophenyl)ethyl]-2-[(2S,4R)-9-(difluoromethyl)-5,5-difluoro-7,8-diazatricyclo[4.3.0.0^2,^4]nona-1(6),8-dien-7-yl]acetamide] | 0.072 nM | > 500 nM |
| Cn1nc(NS(C)(=O)=O)c2c(Cl)ccc(-n3c([C@H](Cc4cc(F)cc(F)c4)NC(=O)Cn4nc(C(F)F)c5c4C(F)(F)[C@@H]4C[C@H]54)nc4cc(-c5nccnc5CO)ccc4c3=O)c21 (atropisomer, axis not shown; (P)) [Example 18, N—((S)-1-((3P)-3-(4-chloro-1-methyl-3-(methylsulfonamido)-1H-indazol-7-yl)-7-(3-(hydroxymethyl)pyrazin-2-yl)-4-oxo-3,4-dihydroquinazolin-2-yl)-2-(3,5-difluorophenyl)ethyl)-2-((3bS,4aR)-3-(difluoromethyl)-5,5-difluoro-3b,4,4a,5-tetrahydro-1H-cyclopropa[3,4]cyclopenta[1,2-c]pyrazol-1-yl)acetamide] | 0.099 nM | > 500 nM |
| Cn1nc(NS(C)(=O)=O)c2c(Cl)ccc(-n3c([C@H](Cc4cc(F)cc(F)c4)NC(=O)Cn4nc(C(F)F)c5c4C(F)(F)[C@@H]4C[C@H]54)nc4cc(-c5ccnnc5)ccc4c3=O)c21 (atropisomer, axis not shown; (P)) [Example 31, N—((S)-1-((3P)-3-(4-chloro-1-methyl-3-(methylsulfonamido)-1H-indazol-7-yl)-4-oxo-7-(pyridazin-4-yl)-3,4-dihydroquinazolin-2-yl)-2-(3,5-difluorophenyl)ethyl)-2-((3bS,4aR)-3-(difluoromethyl)-5,5-difluoro-3b,4,4a,5-tetrahydro-1H-cyclopropa[3,4]cyclopenta[1,2-c]pyrazol-1-yl)acetamide] | 0.29 nM | > 500 nM |
| Cn1nc(NS(C)(=O)=O)c2c(Cl)ccc(-n3c([C@H](Cc4cc(F)cc(F)c4)NC(=O)Cn4nc(C(F)F)c5c4C(F)(F)[C@@H]4C[C@H]54)nc4cc(-c5cccnn5)ccc4c3=O)c21 (atropisomer, axis not shown; (P)) [Example 49, N—((S)-1-((3P)-3-(4-chloro-1-methyl-3-(methylsulfonamido)-1H-indazol-7-yl)-4-oxo-7-(pyridazin-3-yl)-3,4-dihydroquinazolin-2-yl)-2-(3,5-difluorophenyl)ethyl)-2-((3bS,4aR)-3-(difluoromethyl)-5,5-difluoro-3b,4,4a,5-tetrahydro-1H-cyclopropa[3,4]cyclopenta[1,2-c]pyrazol-1-yl)acetamide] | 0.071 nM | > 500 nM |
